From patent publication US20060275321A1, “Polypeptide antagonists of HIV-1 Tat protein” (Phoenix Pharmaceuticals, Inc., priority 2005, published 2006)
Bridges are numbered along the chain shown (N, C = ends). Where no end group is shown, it is not given here. The star is where a group is joined. Acm = CC(=O)NC*

Test system: dissociate cultured cortical neurons
Assay: Mobilization of intracellular Ca2+ in dissociate cultured cortical neurons (Fura-2 AM fluorescence)
Format: cell-based, rat
Conditions: dissociate and cultured cortical neurons of newborn Sprague-Dawley rats, value ± spread
Text: Neurons can be isolated from cerebral cortex according to the protocols for postnatal dissociated nuerons as disclosed for example by Huettner, J. E. and Baughman, R. W., Primary Culture of Identified Neurons From the Visual Cortex of Postnatal Rats, Journal of Neurosciences 6; 3044-3060 (1986); Brewer, G. J., Isolation and Culture of Adult Rat Hippocampal Neurons, Journal of Neuroscience Methods, 71:143-155 (1997); and Brailoiu et al., NAADP Potentiates Neurite Outgrowth, Journal of Biological Chemistry (in press), each hereby incorporated by reference. Newborn Sprague-Dawley rates (about 1 day to about 4 days old) were killed by cervical dislocation. Cerebral cortex was removed and quickly immersed in ice-cold phosphate buffer solution. After removal of meninges, tissue was minced into about 1-millimeter blocks, incubated for about 45 minutes at 37° C. in Hanks balanced salt solution without Ca^2+ and Mg^2+ (Invitrogen, 1600 Faraday Avenue, Carlsbad, Calif. 92008) and supplemented with about 200 ug/mL penicillin, 0.1% EDTA and papain 0.15 mg/mL (Sigma-Aldrich, St. Louis, Mo.). In accordance with the procedure disclosed by Brewer, the tissue can be further dissociated by gentle mechanical trituration. […]

30-86 Cys30Acm, Cys34Acm (Cys31-Cys37): HIV-1 Tat residues 30-86, Cys-Acm at 30 and 34, disulfide bridge Cys31-Cys37 (C(Acm)CFHC(Acm)QVCFITKALGISYGRKKRRQRRRAHQNSQTHQASLSKQPTSQPRGDPTGPKE; disulfide 2-8)
[Ca^2+] response: No Response
